Test results as given in PubChem BioAssay AID179 (DTP/NCI, 2004).
Active and inactive are the calls of the source.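 The calls were made as follows: active = compounds giving half or more protection of infected cells from virus-caused growth loss, again on retest; inactive = the rest.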 Where a SMILES comes first, the peptide text is derived from it. [ ]: non-standard residue; d: D form. Ac5c = NC1(C(=O)O)CCCC1

System: CEM cells HIV-1 protection, formazan growth assay
Assay: NCI AIDS Antiviral Assay
Conditions: for IC50: measured here: growth of uninfected CEM cells
Procedure, shortened: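 Human CEM cells, uninfected and HIV-1-infected, exposed to five drug concentrations; growth measured by soluble formazan assay and scored as percent protection from infection, with protecting compounds retested.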

| Compound | EC50 | IC50 | outcome |
| --- | --- | --- | --- |
| CC(=O)C1C(=O)C(=O)N(c2cccc([N+](=O)[O-])c2)C1=O (stereo unspecified) | > 200 µM | > 200 µM |  |
| O=c1[nH]cnc2c1sc1nc3ccccc3n12 | > 200 µM | 141 µM |  |
| CC(=O)OCC1OC(N2C(=S)N[C@H]([C@@H](O)[C@H](O)[C@H](O)CO)[C@H]2O)C(OC(C)=O)C(OC(C)=O)C1OC(C)=O (stereo partly specified) | > 200 µM | > 200 µM |  |
| COc1ccccc1C=NC12CC3CC(CC(C3)C1)C2 | > 132 µM | 110 µM |  |
| O=C1CS(=O)(=O)C2(CCCCC2)C(=O)N1 | > 200 µM | > 200 µM |  |
| S=C(NC1=NCC(CN2CCN(c3ccccc3)CC2)O1)Nc1ccccc1 (stereo unspecified) | > 200 µM | 45.7 µM |  |
| CN(C)CCCC12CCCCC1=Nc1ccccc12 (stereo unspecified) | > 200 µM | 7.76 µM |  |
| O=P(OC1=CCCCC1)(c1ccccc1)c1ccccc1 | > 200 µM | 81.3 µM |  |
| CC(=O)C1CCN(c2ccccc2)C1 (stereo unspecified) |  |  | inactive |
| CCCNC(=S)/N=C\c1c(O)c2ccccc2oc1=O | > 200 µM | > 200 µM |  |
| COC(=O)/C=C/c1cnc2c(c1)oc(=O)n2C | > 200 µM | > 200 µM |  |
| COC(=O)C1(NC(=O)C(C)NC(=O)C(CCCCN)NC(=O)C(CC(C)C)NC(C)=O)CCCC1 (stereo unspecified) (Ac-LKA[Ac5c]-OMe; configuration not given here) | > 200 µM | > 200 µM |  |
| N#Cc1c(N)nc(SCc2ccccc2)c(C#N)c1-c1ccc(O)cc1 | > 200 µM | 10 µM |  |
| CCCc1c(O)nc(Nc2nc3ccccc3[nH]2)[nH]c1=O | > 200 µM | 63.1 µM |  |
| COc1cc(C(c2ccccc2)N2C(=O)CC[C@H]2C(=O)O)cc(OC)c1OC (stereo partly specified) | > 200 µM | > 200 µM |  |
| COC(=O)Cc1c(-c2c(CC(=O)OC)c3ccccc3n2C2OC(COC3OC(COC(C)=O)C(OC(C)=O)C(OC(C)=O)C3OC(C)=O)C(O)C(O)C2O)[nH]c2ccccc12 (stereo unspecified) | 105 µM | 151 µM |  |
| CCO[C@H]1OC(=O)[C@@H]2C(c3ccc(F)cc3)=NO[C@H]12 | > 135 µM | > 135 µM |  |
| CC(=O)Nc1ccc(/C=C2/SC(=S)N(/C=C(\c3ccccc3)S(=O)Cc3ccccc3)C2=O)cc1 (stereo unspecified) | > 200 µM | 89.1 µM |  |
| CCOC(CC(=O)NCCNC(C)=O)OCC |  |  | inactive |
| Cc1cn(C2OC(CO)(C(F)(F)F)C(O)C2O)c(=O)[nH]c1=O (stereo unspecified) | > 200 µM | > 200 µM |  |
| N#CCCN(c1ccc(C=Nc2ccc(C(=O)O)cc2)cc1)S(=O)(=O)c1ccccc1 | > 302 µM | > 302 µM |  |
| COc1ccc(N2C(=O)C3c4[nH]c5ccc(Br)cc5c4C4CCC(C(C)(C)C)CC4C3C2=O)cc1 (stereo unspecified) |  |  | inactive |
| CN1C(=O)c2ccccc2Cc2c(N3CCCC3)ncnc21 | > 17.8 µM | > 17.8 µM |  |

| Compound | EC50 | IC50 | outcome |
| --- | --- | --- | --- |
| Cc1c2ccccc2nc(CSc2nc3ccccc3s2)[n+]1[O-] | 64.6 µM | > 200 µM |  |
| O=S1(=O)c2ccccc2C(Nc2ccccc2)N1c1ccccc1 (stereo unspecified) | > 200 µM | 66.1 µM |  |
| CCOC(=O)C1=C(Nc2ccccc2)OC/C1=N\NC(=O)Cc1ccccc1 | > 46.8 µM | > 46.8 µM |  |
| COC(=O)c1c2c(cc3c1CC1(Cc4ccccc4C1=O)C3)CCC2 (stereo unspecified) | > 200 µM | 13.5 µM |  |
| c1ccc(-c2ccccn2)nc1 | > 1580 µM | 27.5 µM |  |
| CN1C(=O)[C@@H]2N(N(C)C1=O)[C@@]1(Br)C(=O)NC(=O)[C@@]21Br | 102 µM | 148 µM |  |
| CC[CH2][Pb]([CH2]CC)([CH2]CC)[NH]S(=O)(=O)c1ccc(C)cc1 | > 2 µM | 0.166 µM |  |
| CC(CO)NNC(C)CO (stereo unspecified) | > 200 µM | > 200 µM |  |
| O=c1n(-c2ccccc2)c(=O)n2n1C1/C=C\C=C/C2C2CCC21 (stereo unspecified) | > 200 µM | > 200 µM |  |
| COC(=O)CSc1nnc(CSc2ccc(Cl)cc2)n1-c1ccccc1 | > 200 µM | 105 µM |  |
| COc1cc(Nc2nc3cc(C(F)(F)F)ccc3nc2-c2ccccc2)cc(OC)c1OC | > 41.7 µM | > 41.7 µM |  |
| CCCC[C@H]1[C@@H](OCOc2ccccc2)COC(=O)N1[C@H](C)c1ccccc1 | > 200 µM | 21.4 µM |  |
| COc1ccc2nc3cc([N+](=O)[O-])ccc3c(Nc3ccc(S(=O)(=O)NC(C)=O)cc3)c2c1 | > 200 µM | 75.9 µM |  |
| S=P(NC1CCCCC1)(NC1CCCCC1)NC1CCCCC1 | > 200 µM | > 200 µM |  |
| COC(OC)[C@@H]1OC[C@H](n2cnc3c(N)ncnc32)[C@H]1O | > 200 µM | > 200 µM |  |
| COC(=O)C(=O)C(CC(=O)Nc1cccc(C(F)(F)F)c1)C(=O)OC (stereo unspecified) | > 14.5 µM | > 14.5 µM |  |
| COC(=O)C(=O)C1(CCC(C)=O)c2ccccc2-c2ccccc21 |  |  | inactive |
| CCSc1[nH]c(NC(=S)NC(=O)c2ccccc2Cl)c(C(N)=O)c1C(N)=O | > 200 µM | 110 µM |  |
| C(=Nc1cnc2ccccc2c1)c1ccnc2ccccc12 | > 66.1 µM | 3.55 µM |  |
| CC1=CC(C)(C)C(C#N)(C#N)C(N)=C1C#N | > 200 µM | 95.5 µM |  |
| CCC[CH2][Sn]([CH2]CCC)([S]CCS(=O)(=O)O)[S]CCS(=O)(=O)O | > 200 µM | 115 µM |  |
| CC(=O)Nc1ncc(Sc2ccc([N+](=O)[O-])cc2)s1 | > 200 µM | > 200 µM |  |
